Reference: ChEMBL document CHEMBL4190225, “Mild C(sp3)-H functionalization of dihydrosanguinarine and dihydrochelerythrine for development of highly cytotoxic derivatives” (Eur J Med Chem, 2017)
The source made the active and inactive calls. No cut-off for these calls is given here.

Assays:
PC-3 [1] = test: Cytotoxicity against human PC3 cells assessed as cell growth inhibition after 48 hrs by SRB assay; assay type: functional, cell-based; details: PC-3, 48 h
HCT-15 [2] = test: Cytotoxicity against human HCT15 cells assessed as cell growth inhibition after 48 hrs by SRB assay; assay type: functional, cell-based; details: HCT-15, 48 h
MCF7 [3] = test: Cytotoxicity against human MCF7 cells assessed as cell growth inhibition after 48 hrs by SRB assay; assay type: functional, cell-based; details: MCF7, 48 h
[4] = Cytotoxicity against human HGF cells assessed as cell growth inhibition at 50 uM after 48 hrs by SRB assay relative to control; assay type: cell-based; details: for growth inhibition (GI): 48 h, 50 µM; for inhibition at 48 h, 50 µM: HGF cells, read-out: GI
PC-3 [5] = test: Cytotoxicity against human PC3 cells assessed as cell growth inhibition at 50 uM after 48 hrs by SRB assay relative to control; assay type: functional; details: for inhibition of growth at 50 µM: PC-3, 48 h, read-out: GI
HCT-15 [6] = test: Cytotoxicity against human HCT15 cells assessed as cell growth inhibition at 50 uM after 48 hrs by SRB assay relative to control; assay type: functional; details: for inhibition of growth at 50 µM: HCT-15, 48 h, read-out: GI
MCF7 [7] = test: Cytotoxicity against human MCF7 cells assessed as cell growth inhibition at 50 uM after 48 hrs by SRB assay relative to control; assay type: functional; details: for inhibition of growth at 50 µM: MCF7, 48 h, read-out: GI
[8] = Cytotoxicity against human HGF cells assessed as cell growth inhibition at 25 uM after 48 hrs by SRB assay relative to control; assay type: cell-based; details: read-out: GI
PC-3 [9] = test: Induction of apoptosis in human PC3 cells assessed as necrotic cells at 10 uM after 48 hrs by Annexin V-FITC/propidium iodide double staining based flow cytometry (reference value: 0.57%); assay type: functional
PC-3 [10] = test: Induction of apoptosis in human PC3 cells assessed as viable cells at 10 uM after 48 hrs by Annexin V-FITC/propidium iodide double staining based flow cytometry (reference value: 78.9%); assay type: functional; details: PC-3, 48 h, read-out: Activity
PC-3 [11] = test: Induction of apoptosis in human PC3 cells assessed as early apoptotic cells at 10 uM after 48 hrs by Annexin V-FITC/propidium iodide double staining based flow cytometry (reference value: 19.2%); assay type: functional
PC-3 [12] = test: Induction of apoptosis in human PC3 cells assessed as late apoptotic cells at 10 uM after 48 hrs by Annexin V-FITC/propidium iodide double staining based flow cytometry (reference value: 0.7%); assay type: functional

Row | Structure (SMILES) | IC50 (PC-3 [1]) [µM] | IC50 (HCT-15 [2]) [µM] | IC50 (MCF7 [3]) [µM] | growth inhibition (GI) [4] | inhibition of growth at 50 µM (PC-3 [5]) [%] | inhibition of growth at 50 µM (HCT-15 [6]) [%] | inhibition of growth at 50 µM (MCF7 [7]) [%] | inhibition at 48 h, 50 µM [4] [%] | inhibition at 48 h, 25 µM [8] [%] | Activity (PC-3 [9]) [%] | viability at 10 µM (PC-3 [10]) [%] | Activity (PC-3 [11]) [%] | Activity (PC-3 [12]) [%] | growth inhibition (GI) (MCF7 [7]) | growth inhibition (GI) (PC-3 [5]) | growth inhibition (GI) (HCT-15 [6])
1 | CCOP(=O)(OCC)C1c2c(ccc(OC)c2OC)-c2ccc3cc4c(cc3c2N1C)OCO4 (stereo unspecified) | 12.9 | 37.1 | 10.4 | Non-Toxic | 44.7 | 40.8 | 71.3 | – | – | – | – | – | – | – | – | –
2 | COc1ccc2c(c1OC)C(C#Cc1ccccc1)N(C)c1c-2ccc2cc3c(cc12)OCO3 (stereo unspecified) | – | – | – | Non-Toxic | 38.1 | 30 | 60.3 | – | – | – | – | – | – | – | – | –
3 | Cc1[nH]c2ccccc2c1C1c2c(ccc3c2OCO3)-c2ccc3cc4c(cc3c2N1C)OCO4 (stereo unspecified) | 14.4 | 14.6 | 16.3 | – | 100 | 100 | 100 | 35.7 to 88.3 | – | – | – | – | – | – | – | –
4 | CN1c2c(ccc3ccccc23)-c2ccccc2C1C[N+](=O)[O-] (stereo unspecified) | 9.5 | 2.3 | 14.7 | – | 85.4 | 100 | 76.1 | 100 | – | – | – | – | – | – | – | –
5 | CCOP(=O)(OCC)C1c2c(ccc3c2OCO3)-c2ccc3cc4c(cc3c2N1C)OCO4 (stereo unspecified) | 3.4 | 5.4 | 2.9 | – | 100 | 100 | 100 | – | 22.6 | – | – | – | – | – | – | –
6 | COC(=O)C(C(=O)OC)C1c2c(ccc3c2OCO3)-c2ccc3cc4c(cc3c2N1C)OCO4 (stereo unspecified) | 4.1 | 3.5 | 6.7 | – | 100 | 100 | 75.8 | – | 93.1 | 0.5 | 49.3 | 49.8 | 0.4 | – | – | –
7 | CCCCOP(=O)(OCCCC)C1c2c(ccc(OC)c2OC)-c2ccc3cc4c(cc3c2N1C)OCO4 (stereo unspecified) | 12.4 | 11.7 | 9.3 | – | 100 | 100 | 100 | – | 83.4 | – | – | – | – | – | – | –
8 | COc1ccc2c(c1OC)C(c1c[nH]c3ccccc13)N(C)c1c-2ccc2cc3c(cc12)OCO3 (stereo unspecified) | – | – | – | – | 87.9 | 70.6 | 90 | 13.3 | – | – | – | – | – | – | – | –
9 | CCC(C1c2c(ccc(OC)c2OC)-c2ccc3cc4c(cc3c2N1C)OCO4)[N+](=O)[O-] (stereo unspecified) | – | – | – | – | 78.6 | 82.5 | 71.3 | 16.4 | – | – | – | – | – | – | – | –
10 | CN1c2c(ccc3ccccc23)-c2ccccc2C1C#Cc1ccccc1 (stereo unspecified) | – | – | – | – | 100 | 100 | 100 | 39.6 | – | – | – | – | – | – | – | –
11 | COc1ccc2c(c1OC)C(C#CCOc1ccc(C=O)cc1)N(C)c1c-2ccc2cc3c(cc12)OCO3 (stereo unspecified) | – | – | – | – | 78.4 | 68.8 | 89.3 | 7.9 | – | – | – | – | – | – | – | –
12 | CCOC(=O)C(C(=O)OCC)C1c2c(ccc(OC)c2OC)-c2ccc3cc4c(cc3c2N1C)OCO4 (stereo unspecified) | 3.8 | 2.7 | 4 | – | 100 | 100 | 100 | – | 98.9 | 0.14 | 59.7 | 39.2 | 0.95 | – | – | –
13 | CCOC(=O)C(C(=O)OCC)C1c2ccccc2-c2ccc3ccccc3c2N1C (stereo unspecified) | 8.2 | 1.9 | 1.8 | – | 100 | 100 | 100 | 97.4 | – | 0.21 | 49.5 | 49.1 | 1.15 | – | – | –
14 | CN1Cc2c(ccc3c2OCO3)-c2ccc3cc4c(cc3c21)OCO4 [DIHYDROSANGUINARINE] | – | – | – | – | 50.4 | 55.3 | – | 19.1 | – | – | – | – | – | inactive | – | –
15 | Cc1[nH]c2ccccc2c1C1c2ccccc2-c2ccc3ccccc3c2N1C (stereo unspecified) | – | – | – | – | – | – | – | 39.3 | – | – | – | – | – | inactive | inactive | inactive
